In patent US11840686B2, “Modulation of prekallikrein (PKK) expression” (Ionis Pharmaceuticals, Inc., priority 2013, dated 2023):
Strand notation (5' to 3'): a small letter for the sugar, then the base; units joined by * are phosphorothioate-linked, units joined directly phosphodiester-linked; [ ] holds rarer units or linkages, { } end groups; capitals alone tell only the bases. e = 2'-O-(2-methoxyethyl) (MOE); k = constrained ethyl (cEt); [5mC] = 5-methylcytosine; d = 2'-deoxy (DNA)

System: human PKK mRNA
Test: Antisense inhibition of human PKK mRNA in HepaRG cells, 1,000 nM, MOE/deoxy/cEt oligonucleotides (Example 3)
Format: cell-based
In short: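 HepaRG cells at 20,000 per well electroporated with 1,000 nM 16-mer MOE/cEt/deoxy gapmers (phosphorothioate, 5-methylcytosine). After about 24 h, PKK mRNA measured by qRT-PCR with primer probe set RTS3454, normalized to RIBOGREEN total RNA. Reported as percent inhibition versus untreated cells.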

[1] = Table 28, HepaRG cells, 1,000 nM antisense oligonucleotide, human PKK mRNA
[2] = HepaRG cells, electroporation with 1,000 nM antisense oligonucleotide, approximately 24 hours, primer probe set RTS3454, relative to untreated control cells, experiment of Table 23
[3] = Table 20, HepaRG cells, electroporation with 1,000 nM antisense oligonucleotide, approximately 24 hours, PKK mRNA by RT-PCR (RTS3454), relative to untreated control cells
[4] = Table 22 experiment, HepaRG cells, electroporation with 1,000 nM antisense oligonucleotide, approx. 24 hours, PKK mRNA by RT-PCR (RTS3454), relative to untreated control cells
[5] = Table 30, human PKK mRNA, HepaRG cells, 1,000 nM antisense oligonucleotide
[6] = Table 27, HepaRG cells, 1,000 nM antisense oligonucleotide, human PKK mRNA
[7] = Table 19, HepaRG cells, electroporation with 1,000 nM antisense oligonucleotide, approximately 24 hours, PKK mRNA by RT-PCR (RTS3454), relative to untreated control cells
[8] = HepaRG cells, electroporation with 1,000 nM antisense oligonucleotide, approximately 24 hours, primer probe set RTS3454, relative to untreated control cells, experiment of Table 24
[9] = HepaRG cells, electroporation with 1,000 nM antisense oligonucleotide, approx. 24 hours, PKK mRNA by RT-PCR (RTS3454), relative to untreated control cells, Table 26 experiment
[10] = PKK mRNA, HepaRG cells, 1,000 nM antisense oligonucleotide, Table 31
[11] = Table 21 experiment, HepaRG cells, electroporation with 1,000 nM antisense oligonucleotide, approx. 24 hours, PKK mRNA by RT-PCR (RTS3454), relative to untreated control cells
[12] = HepaRG cells, electroporation with 1,000 nM antisense oligonucleotide, approx. 24 hours, PKK mRNA by RT-PCR (RTS3454), relative to untreated control cells, Table 25 experiment

## 548533 (antisense eG*eA*kG*dG*dT*dG*dG*dT*dT*dG*dG*dA*dG*k[5mC]*kT*eA) [compound 548533]
[1]
  % inhibition: 9%

## 547963 (antisense eG*eT*kT*d[5mC]*dA*dG*dG*dT*dA*dA*dA*dG*dT*kT*k[5mC]*eT) [compound 547963]
[2]
  % inhibition: 22%

## 547871 (antisense eG*e[5mC]*kT*dA*dA*d[5mC]*d[5mC]*dT*dT*dA*dG*dA*d[5mC]*kA*k[5mC]*eA) [compound 547871]
[3]
  % inhibition: 96%
[4]
  % inhibition: 77%

## 548442 (antisense eT*eT*k[5mC]*d[5mC]*dT*dA*dT*dA*dA*d[5mC]*dA*dG*dT*kA*kT*e[5mC]) [compound 548442]
[5]
  % inhibition: 17%

## 548392 (eG*eT*kA*dG*dA*dG*d[5mC]*dA*dT*dG*dG*dA*dG*k[5mC]*kG*eA; antisense) [compound 548392]
[5]
  % inhibition: 31%

## 548378 (eG*e[5mC]*kA*dA*dG*dA*dT*dG*d[5mC]*dA*dT*dG*d[5mC]*kA*kG*e[5mC]; antisense) [compound 548378]
[6]
  % inhibition: 49%

## 548526 (antisense e[5mC]*eT*kA*dA*dG*d[5mC]*dT*dG*dT*dG*dT*d[5mC]*dT*k[5mC]*kA*eT) [compound 548526]
[1]
  % inhibition: 26%

## 548148 (eG*e[5mC]*kA*dG*d[5mC]*dT*d[5mC]*dT*dG*dA*dG*dT*dG*k[5mC]*kA*e[5mC]; antisense) [compound 548148]
[7]
  % inhibition: 66%

## 548072 (eT*eT*kT*d[5mC]*dT*d[5mC]*d[5mC]*dT*dT*d[5mC]*dG*dA*dG*kA*kA*eG; antisense) [compound 548072]
[8]
  % inhibition: 33%

## 548259 (antisense eG*eT*kG*dA*dT*dG*dA*dA*dA*dG*dT*dA*d[5mC]*kA*kG*e[5mC]) [compound 548259]
[9]
  % inhibition: 45%

## 548682 (antisense eG*eT*kA*dT*d[5mC]*d[5mC]*d[5mC]*d[5mC]*dT*dT*dT*dT*d[5mC]*kT*kA*eT) [compound 548682]
[10]
  % inhibition: 0%

## 547964 (antisense eG*eG*kT*dT*d[5mC]*dA*dG*dG*dT*dA*dA*dA*dG*kT*kT*e[5mC]) [compound 547964]
[2]
  % inhibition: 0%

## 548020 (eT*e[5mC]*k[5mC]*d[5mC]*d[5mC]*dA*dA*dG*dA*dA*dG*dA*dG*kT*kT*eT; antisense) [compound 548020]
[8]
  % inhibition: 76%

## 548076 (e[5mC]*eA*k[5mC]*d[5mC]*dT*dT*dT*d[5mC]*dT*d[5mC]*d[5mC]*dT*dT*k[5mC]*kG*eA; antisense) [compound 548076]
[7]
  % inhibition: 26%

## 548433 (antisense eT*eA*kT*d[5mC]*dA*d[5mC]*dT*dG*dT*dA*d[5mC]*d[5mC]*dT*kA*kT*eA) [compound 548433]
[5]
  % inhibition: 33%

## 547804 (eG*eT*kG*dT*dA*d[5mC]*dA*dT*dG*dG*dA*dA*dG*k[5mC]*kT*eA; antisense) [compound 547804]
[11]
  % inhibition: 22%

## 548140 (e[5mC]*eA*kG*dA*dT*dG*dA*dG*dG*dA*d[5mC]*d[5mC]*d[5mC]*k[5mC]*k[5mC]*e[5mC]; antisense) [compound 548140]
[7]
  % inhibition: 74%

## 547972 (antisense eT*e[5mC]*kA*dA*d[5mC]*dT*d[5mC]*d[5mC]*d[5mC]*dG*dG*dG*dT*kA*kA*eA) [compound 547972]
[2]
  % inhibition: 49%

## 547929 (eA*eG*kA*dT*dG*dG*dT*d[5mC]*d[5mC]*dG*dA*d[5mC]*dA*k[5mC]*kA*e[5mC]; antisense) [compound 547929]
[2]
  % inhibition: 65%

## 547759 (antisense eT*eG*kA*dG*dT*d[5mC]*dT*d[5mC]*dT*dT*dG*dT*d[5mC]*kA*k[5mC]*eT) [compound 547759]
[11]
  % inhibition: 73%

## 548519 (antisense e[5mC]*e[5mC]*kT*d[5mC]*d[5mC]*d[5mC]*d[5mC]*dT*dT*dG*dT*dG*dT*kG*kT*e[5mC]) [compound 548519]
[1]
  % inhibition: 31%

## 547924 (eG*eT*k[5mC]*d[5mC]*dG*dA*d[5mC]*dA*d[5mC]*dA*d[5mC]*dA*dA*kA*kA*eG; antisense) [compound 547924]
[2]
  % inhibition: 53%

## 548495 (antisense eT*eT*kG*dT*dG*dA*d[5mC]*d[5mC]*d[5mC]*d[5mC]*d[5mC]*d[5mC]*dA*k[5mC]*k[5mC]*eG) [compound 548495]
[1]
  % inhibition: 55%

## 547813 (eG*eG*kT*dG*dG*dA*dA*dT*dG*dT*dG*d[5mC]*dA*k[5mC]*k[5mC]*eT; antisense) [compound 547813]
[11]
  % inhibition: 34%

## 548214 (e[5mC]*eA*kG*dA*d[5mC]*dA*dG*d[5mC]*d[5mC]*d[5mC]*dA*d[5mC]*d[5mC]*kA*kA*e[5mC]; antisense) [compound 548214]
[12]
  % inhibition: 55%

## 548186 (e[5mC]*eA*kA*d[5mC]*dA*d[5mC]*dA*d[5mC]*dA*dG*dT*d[5mC]*dA*kT*kG*eG; antisense) [compound 548186]
[12]
  % inhibition: 0%

## 548210 (e[5mC]*eA*kA*d[5mC]*dA*dA*dT*d[5mC]*dT*d[5mC]*dT*dG*dG*kT*k[5mC]*eA; antisense) [compound 548210]
[12]
  % inhibition: 55%

## 548199 (eG*e[5mC]*kA*d[5mC]*dT*dG*d[5mC]*dA*dG*dG*d[5mC]*dA*dA*kT*kA*eT; antisense) [compound 548199]
[12]
  % inhibition: 24%

## 548138 (e[5mC]*e[5mC]*k[5mC]*d[5mC]*dA*dG*dG*d[5mC]*dT*d[5mC]*dA*dG*dA*kA*kT*eT; antisense) [compound 548138]
[7]
  % inhibition: 52%

## 548270 (antisense e[5mC]*eT*kG*d[5mC]*dT*dG*dG*dT*dT*dT*dT*dA*dG*kA*k[5mC]*e[5mC]) [compound 548270]
[9]
  % inhibition: 28%

## 548364 (antisense eT*eG*kG*d[5mC]*dT*dA*dA*dG*dT*d[5mC]*dA*dG*dG*k[5mC]*k[5mC]*e[5mC]) [compound 548364]
[6]
  % inhibition: 30%

## 548169 (eG*eT*kT*dG*d[5mC]*dG*dA*d[5mC]*d[5mC]*dT*d[5mC]*dG*d[5mC]*kA*kT*eT; antisense) [compound 548169]
[12]
  % inhibition: 7%

## 548323 (e[5mC]*eT*kG*dT*dT*dG*d[5mC]*d[5mC]*dT*dG*dA*d[5mC]*dA*kT*kG*e[5mC]; antisense) [compound 548323]
[6]
  % inhibition: 43%

## 548573 (e[5mC]*e[5mC]*kA*dG*dT*d[5mC]*dA*d[5mC]*d[5mC]*dA*d[5mC]*d[5mC]*dA*kT*kT*eG; antisense) [compound 548573]
HepaRG cells, 1,000 nM antisense oligonucleotide, Table 29
  % inhibition: 65%

## 548483 (e[5mC]*eT*kA*d[5mC]*dA*dG*dA*dT*d[5mC]*dA*dT*d[5mC]*d[5mC]*k[5mC]*kT*eA; antisense) [compound 548483]
[1]
  % inhibition: 5%

## 548671 (antisense e[5mC]*eA*kA*d[5mC]*dA*dA*dT*d[5mC]*d[5mC]*dA*dA*dA*dG*k[5mC]*k[5mC]*eT) [compound 548671]
[10]
  % inhibition: 3%

## 547911 (eT*eG*kG*d[5mC]*dA*dA*d[5mC]*d[5mC]*dA*dA*dT*dT*dT*k[5mC]*kT*eG; antisense) [compound 547911]
[3]
  % inhibition: 0%
[4]
  % inhibition: 15%

## 547879 (antisense eT*e[5mC]*kA*dA*d[5mC]*dA*d[5mC]*dT*dG*d[5mC]*dT*dA*dA*k[5mC]*k[5mC]*eT) [compound 547879]
[3]
  % inhibition: 69%
[4]
  % inhibition: 65%

## 548009 (eG*eT*kT*dA*d[5mC]*dA*d[5mC]*dA*dA*dT*d[5mC]*dT*d[5mC]*kA*kA*eA; antisense) [compound 548009]
[8]
  % inhibition: 47%
